Assay results taken from the kinase profiling compilation of Christmann-Franck et al. (2016).

Tests used:
Test in all cases: radiometric filter-binding kinase assay
MARK4 (human) = MARK4 (human) (UniProt Q96L34)
MAPK1 (human) = MAPK1 (human) (UniProt P28482)
CSK (human) = CSK (human) (UniProt P41240)
[1] = biological target: STK11 CAB39 STRADA (human) (UniProt Q9Y376+Q7RTN6+Q15831)
MELK (human) = MELK (human) (UniProt Q14680)
CDK2 CCNA2 (human) = CDK2 CCNA2 (human) (UniProt P20248+P24941)
MAPKAPK3 (human) = MAPKAPK3 (human) (UniProt Q16644)
MAPK13 (human) = MAPK13 (human) (UniProt O15264)
Sequence of MAPK13 (human) (O15264 whole entry, looked up): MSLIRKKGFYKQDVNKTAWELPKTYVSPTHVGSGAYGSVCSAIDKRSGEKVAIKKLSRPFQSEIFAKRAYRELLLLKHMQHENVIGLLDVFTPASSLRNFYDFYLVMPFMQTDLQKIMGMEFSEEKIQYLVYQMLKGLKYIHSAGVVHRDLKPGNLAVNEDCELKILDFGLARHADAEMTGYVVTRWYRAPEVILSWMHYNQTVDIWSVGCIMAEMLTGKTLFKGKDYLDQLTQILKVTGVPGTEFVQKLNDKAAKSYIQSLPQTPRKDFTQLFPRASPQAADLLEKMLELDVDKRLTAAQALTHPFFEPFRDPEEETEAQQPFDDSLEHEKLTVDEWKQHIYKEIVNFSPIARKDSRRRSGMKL

CSNK2A1 (human) = CSNK2A1 (human) (UniProt P68400)
AURKB (human) = AURKB (human) (UniProt Q96GD4)
Sequence of AURKB (human) (Q96GD4 whole entry, looked up): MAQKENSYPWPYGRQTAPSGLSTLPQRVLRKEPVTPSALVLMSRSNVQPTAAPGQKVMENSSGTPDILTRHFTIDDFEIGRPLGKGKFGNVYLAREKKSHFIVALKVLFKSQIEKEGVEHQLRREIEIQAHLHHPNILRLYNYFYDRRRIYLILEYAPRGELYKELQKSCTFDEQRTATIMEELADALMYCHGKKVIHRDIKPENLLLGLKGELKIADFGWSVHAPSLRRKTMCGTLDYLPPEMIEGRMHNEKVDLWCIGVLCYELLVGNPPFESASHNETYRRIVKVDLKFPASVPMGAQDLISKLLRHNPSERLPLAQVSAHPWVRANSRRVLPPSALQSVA

TTK (human) = TTK (human) (UniProt P33981)
ROCK2 (rat) = details: accession and sequence are those of the human protein
PRKAA1 or PRKAA2 (rat) = details: accession and sequence are those of the human protein
FGFR1 (human) = FGFR1 (human) (UniProt P11362)
INSRR (human) = INSRR (human) (UniProt P14616)
MAP2K2 (human) = MAP2K2 (human) (UniProt P36507)
MINK1 (human) = MINK1 (human) (UniProt Q8N4C8)
LCK (mouse) = details: accession and sequence are those of the human protein
MKNK1 (human) = MKNK1 (human) (UniProt Q9BUB5)
Sequence of MKNK1 (human) (Q9BUB5 whole entry, looked up): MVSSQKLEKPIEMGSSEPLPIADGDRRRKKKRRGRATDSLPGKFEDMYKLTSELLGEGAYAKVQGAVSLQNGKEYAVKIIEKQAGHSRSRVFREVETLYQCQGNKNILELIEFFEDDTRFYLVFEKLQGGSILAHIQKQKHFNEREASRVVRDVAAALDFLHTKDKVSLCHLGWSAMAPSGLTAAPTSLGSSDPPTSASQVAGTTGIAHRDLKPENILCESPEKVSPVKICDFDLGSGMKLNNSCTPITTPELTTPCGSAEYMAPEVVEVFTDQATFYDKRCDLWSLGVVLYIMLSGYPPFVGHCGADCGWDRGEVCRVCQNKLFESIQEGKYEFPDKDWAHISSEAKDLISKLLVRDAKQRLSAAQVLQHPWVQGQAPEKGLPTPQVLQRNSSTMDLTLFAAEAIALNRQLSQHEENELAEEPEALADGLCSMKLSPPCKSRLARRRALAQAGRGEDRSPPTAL

PRKACA (human) = PRKACA (human) (UniProt P17612)
GSK3B (human) = GSK3B (human) (UniProt P49841)
PRKCZ (human) = PRKCZ (human) (UniProt Q05513)
DAPK1 (human) = DAPK1 (human) (UniProt P53355)
EEF2K (human) = EEF2K (human) (UniProt O00418)
Sequence of EEF2K (human) (O00418 whole entry, looked up): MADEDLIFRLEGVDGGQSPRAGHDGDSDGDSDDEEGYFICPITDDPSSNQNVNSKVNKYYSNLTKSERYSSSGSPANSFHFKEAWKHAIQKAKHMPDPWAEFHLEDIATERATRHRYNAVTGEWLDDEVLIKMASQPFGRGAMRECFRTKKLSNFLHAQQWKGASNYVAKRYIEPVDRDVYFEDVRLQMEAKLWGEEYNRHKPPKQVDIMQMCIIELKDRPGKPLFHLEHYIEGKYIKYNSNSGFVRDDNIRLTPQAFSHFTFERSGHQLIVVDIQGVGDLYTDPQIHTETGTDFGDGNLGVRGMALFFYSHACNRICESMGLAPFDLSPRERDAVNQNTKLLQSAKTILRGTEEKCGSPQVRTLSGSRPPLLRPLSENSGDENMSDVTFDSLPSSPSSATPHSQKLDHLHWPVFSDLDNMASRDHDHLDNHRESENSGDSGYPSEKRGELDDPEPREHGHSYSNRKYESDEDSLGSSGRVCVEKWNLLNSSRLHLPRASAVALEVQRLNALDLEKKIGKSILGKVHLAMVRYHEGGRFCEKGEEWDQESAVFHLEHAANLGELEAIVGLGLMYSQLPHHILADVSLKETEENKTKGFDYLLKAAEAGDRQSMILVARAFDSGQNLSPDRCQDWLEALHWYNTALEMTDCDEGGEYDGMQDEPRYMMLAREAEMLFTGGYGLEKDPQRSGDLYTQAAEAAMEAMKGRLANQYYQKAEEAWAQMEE

IKBKB (human) = IKBKB (human) (UniProt O14920)
SRC (human) = SRC (human) (UniProt P12931)
Sequence of SRC (human) (P12931 whole entry, looked up): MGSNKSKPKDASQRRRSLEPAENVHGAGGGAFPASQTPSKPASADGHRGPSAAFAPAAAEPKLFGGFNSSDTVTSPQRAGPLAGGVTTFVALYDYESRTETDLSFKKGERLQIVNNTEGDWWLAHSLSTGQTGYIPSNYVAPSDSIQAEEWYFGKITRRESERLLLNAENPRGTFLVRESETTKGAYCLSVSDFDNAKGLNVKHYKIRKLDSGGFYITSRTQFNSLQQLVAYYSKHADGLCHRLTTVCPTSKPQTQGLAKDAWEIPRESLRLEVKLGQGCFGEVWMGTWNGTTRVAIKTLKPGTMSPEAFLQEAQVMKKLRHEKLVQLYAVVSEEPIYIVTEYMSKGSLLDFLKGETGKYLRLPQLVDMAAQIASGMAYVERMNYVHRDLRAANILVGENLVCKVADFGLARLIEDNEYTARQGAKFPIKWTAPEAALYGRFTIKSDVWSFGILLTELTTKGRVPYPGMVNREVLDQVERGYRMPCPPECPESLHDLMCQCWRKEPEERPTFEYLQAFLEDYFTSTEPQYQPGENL

MAP3K9 (human) = MAP3K9 (human) (UniProt P80192)
CHEK2 (human) = CHEK2 (human) (UniProt O96017)
ERBB4 (human) = ERBB4 (human) (UniProt Q15303)
EPHB3 (human) = EPHB3 (human) (UniProt P54753)
RPS6KA1 KD1 KD2 (human) = RPS6KA1 KD1 KD2 (human) (UniProt Q15418)
Sequence of RPS6KA1 KD1 KD2 (human) (Q15418 whole entry, looked up): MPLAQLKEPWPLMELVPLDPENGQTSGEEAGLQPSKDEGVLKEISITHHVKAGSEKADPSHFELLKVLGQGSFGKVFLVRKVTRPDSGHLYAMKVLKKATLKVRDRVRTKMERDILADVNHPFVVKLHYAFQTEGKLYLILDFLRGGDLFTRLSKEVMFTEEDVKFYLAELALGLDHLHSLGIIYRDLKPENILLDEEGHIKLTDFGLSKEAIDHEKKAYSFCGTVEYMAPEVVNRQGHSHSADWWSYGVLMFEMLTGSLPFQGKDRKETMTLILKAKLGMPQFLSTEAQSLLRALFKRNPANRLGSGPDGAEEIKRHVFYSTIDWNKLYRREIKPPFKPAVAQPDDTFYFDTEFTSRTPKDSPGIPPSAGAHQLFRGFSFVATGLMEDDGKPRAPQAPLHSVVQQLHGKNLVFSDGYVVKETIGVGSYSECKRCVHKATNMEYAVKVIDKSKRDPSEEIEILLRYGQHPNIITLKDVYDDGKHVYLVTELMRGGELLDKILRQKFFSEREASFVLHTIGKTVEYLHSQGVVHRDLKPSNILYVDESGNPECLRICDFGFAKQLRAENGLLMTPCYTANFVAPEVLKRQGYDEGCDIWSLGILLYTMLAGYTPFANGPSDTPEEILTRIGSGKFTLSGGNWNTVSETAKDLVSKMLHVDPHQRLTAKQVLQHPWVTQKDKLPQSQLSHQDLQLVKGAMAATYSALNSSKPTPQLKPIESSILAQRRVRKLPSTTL

MYLK (human) = MYLK (human) (UniProt Q15746)
NTRK1 (human) = NTRK1 (human) (UniProt P04629)
MKNK2 (human) = MKNK2 (human) (UniProt Q9HBH9)
Sequence of MKNK2 (human) (Q9HBH9 whole entry, looked up): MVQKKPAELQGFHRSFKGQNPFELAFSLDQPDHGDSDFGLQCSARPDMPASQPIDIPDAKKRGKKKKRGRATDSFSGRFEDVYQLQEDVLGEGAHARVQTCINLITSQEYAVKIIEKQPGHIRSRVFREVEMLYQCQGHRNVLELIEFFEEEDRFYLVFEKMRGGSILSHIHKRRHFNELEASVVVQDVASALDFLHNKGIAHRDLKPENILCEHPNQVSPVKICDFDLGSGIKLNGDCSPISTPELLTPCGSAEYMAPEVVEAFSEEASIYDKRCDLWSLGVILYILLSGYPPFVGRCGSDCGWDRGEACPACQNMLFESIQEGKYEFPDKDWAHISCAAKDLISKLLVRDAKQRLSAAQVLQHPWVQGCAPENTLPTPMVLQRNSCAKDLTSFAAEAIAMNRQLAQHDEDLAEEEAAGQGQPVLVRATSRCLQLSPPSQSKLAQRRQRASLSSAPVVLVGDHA

PHKG1 (human) = PHKG1 (human) (UniProt Q16816)

Sequence of CSK (human) (P41240 whole entry, looked up): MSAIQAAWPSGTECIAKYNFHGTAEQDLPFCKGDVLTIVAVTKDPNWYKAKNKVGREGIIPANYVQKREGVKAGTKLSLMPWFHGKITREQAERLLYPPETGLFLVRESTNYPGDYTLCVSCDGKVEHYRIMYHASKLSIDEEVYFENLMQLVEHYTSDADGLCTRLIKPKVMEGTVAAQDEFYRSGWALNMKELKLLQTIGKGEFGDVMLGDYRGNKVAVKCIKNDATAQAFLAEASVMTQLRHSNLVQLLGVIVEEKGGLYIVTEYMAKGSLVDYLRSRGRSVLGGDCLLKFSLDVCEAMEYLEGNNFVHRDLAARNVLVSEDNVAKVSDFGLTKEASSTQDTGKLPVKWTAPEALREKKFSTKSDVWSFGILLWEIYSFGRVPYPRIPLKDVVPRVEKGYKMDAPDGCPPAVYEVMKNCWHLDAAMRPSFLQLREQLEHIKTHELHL
Sequence of MELK (human) (Q14680 whole entry, looked up): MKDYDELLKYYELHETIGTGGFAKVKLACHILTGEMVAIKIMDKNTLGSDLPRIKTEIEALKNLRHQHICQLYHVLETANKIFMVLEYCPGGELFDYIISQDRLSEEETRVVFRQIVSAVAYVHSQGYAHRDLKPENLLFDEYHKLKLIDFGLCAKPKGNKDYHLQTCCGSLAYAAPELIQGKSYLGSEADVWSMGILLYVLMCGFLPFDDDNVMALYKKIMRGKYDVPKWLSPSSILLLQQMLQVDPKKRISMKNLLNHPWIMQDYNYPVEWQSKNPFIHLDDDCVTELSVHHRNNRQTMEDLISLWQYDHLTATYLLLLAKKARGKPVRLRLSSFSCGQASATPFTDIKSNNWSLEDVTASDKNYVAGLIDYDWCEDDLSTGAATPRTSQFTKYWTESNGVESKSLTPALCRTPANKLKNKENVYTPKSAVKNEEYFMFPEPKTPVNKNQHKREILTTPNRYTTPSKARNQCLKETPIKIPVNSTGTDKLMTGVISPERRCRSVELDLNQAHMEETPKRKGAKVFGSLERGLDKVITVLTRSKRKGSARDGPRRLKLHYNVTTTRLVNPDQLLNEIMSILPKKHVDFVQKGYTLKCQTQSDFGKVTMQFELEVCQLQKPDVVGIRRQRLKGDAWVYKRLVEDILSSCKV

NC(=O)c1cc(-c2ccnc(NC3CCCCC3)c2)nc(N2CCNCC2)c1
residual activity (MARK4 (human); compound 0.1 µM): 87% | residual activity (MARK4 (human); compound 1.0 µM): 46% | residual activity (MARK4 (human); compound 10.0 µM): 10% | residual activity (MAPK1 (human); compound 0.1 µM): 36% | residual activity (MAPK1 (human); compound 1.0 µM): 29% | residual activity (MAPK1 (human); compound 10.0 µM): 6% | residual activity (CSK (human); compound 0.1 µM): 113% | residual activity (CSK (human); compound 1.0 µM): 116% | residual activity (CSK (human); compound 10.0 µM): 90% | residual activity ([1]; compound 0.1 µM): 77% | residual activity ([1]; compound 10.0 µM): 71% | residual activity (MELK (human); compound 0.1 µM): 108% | residual activity (MELK (human); compound 1.0 µM): 78% | residual activity (MELK (human); compound 10.0 µM): 40% | residual activity (CDK2 CCNA2 (human); compound 0.1 µM): 66% | residual activity (CDK2 CCNA2 (human); compound 1.0 µM): 30% | residual activity (CDK2 CCNA2 (human); compound 10.0 µM): 11% | residual activity (MAPKAPK3 (human); compound 0.1 µM): 92% | residual activity (MAPKAPK3 (human); compound 1.0 µM): 100% | residual activity (MAPKAPK3 (human); compound 10.0 µM): 92% | residual activity (MAPK13 (human); compound 0.1 µM): 89% | residual activity (MAPK13 (human); compound 1.0 µM): 93% | residual activity (MAPK13 (human); compound 10.0 µM): 50% | residual activity (CSNK2A1 (human); compound 0.1 µM): 107% | residual activity (CSNK2A1 (human); compound 1.0 µM): 110% | residual activity (CSNK2A1 (human); compound 10.0 µM): 65% | residual activity (AURKB (human); compound 0.1 µM): 132% | residual activity (AURKB (human); compound 1.0 µM): 117% | residual activity (AURKB (human); compound 10.0 µM): 115% | residual activity (TTK (human); compound 0.1 µM): 111% | residual activity (TTK (human); compound 1.0 µM): 87% | residual activity (TTK (human); compound 10.0 µM): 79% | residual activity (ROCK2 (rat); compound 0.1 µM): 99% | residual activity (ROCK2 (rat); compound 10.0 µM): 51% | residual activity (PRKAA1 or PRKAA2 (rat); compound 0.1 µM): 97% | residual activity (PRKAA1 or PRKAA2 (rat); compound 1.0 µM): 61% | residual activity (PRKAA1 or PRKAA2 (rat); compound 10.0 µM): 20% | residual activity (FGFR1 (human); compound 0.1 µM): 110% | residual activity (FGFR1 (human); compound 1.0 µM): 85% | residual activity (FGFR1 (human); compound 10.0 µM): 82% | residual activity (INSRR (human); compound 0.1 µM): 100% | residual activity (INSRR (human); compound 1.0 µM): 107% | residual activity (INSRR (human); compound 10.0 µM): 97% | residual activity (MAP2K2 (human); compound 0.1 µM): 106% | residual activity (MAP2K2 (human); compound 1.0 µM): 123% | residual activity (MAP2K2 (human); compound 10.0 µM): 115% | residual activity (MINK1 (human); compound 0.1 µM): 65% | residual activity (MINK1 (human); compound 1.0 µM): 13% | residual activity (MINK1 (human); compound 10.0 µM): 2% | residual activity (LCK (mouse); compound 0.1 µM): 84% | residual activity (LCK (mouse); compound 1.0 µM): 30% | residual activity (LCK (mouse); compound 10.0 µM): 9% | residual activity (MKNK1 (human); compound 0.1 µM): 95% | residual activity (MKNK1 (human); compound 1.0 µM): 38% | residual activity (MKNK1 (human); compound 10.0 µM): 7% | residual activity (PRKACA (human); compound 0.1 µM): 105% | residual activity (PRKACA (human); compound 1.0 µM): 109% | residual activity (PRKACA (human); compound 10.0 µM): 93% | residual activity (GSK3B (human); compound 0.1 µM): 86% | residual activity (GSK3B (human); compound 1.0 µM): 82% | residual activity (GSK3B (human); compound 10.0 µM): 51% | residual activity (PRKCZ (human); compound 0.1 µM): 88% | residual activity (PRKCZ (human); compound 1.0 µM): 109% | residual activity (PRKCZ (human); compound 10.0 µM): 84% | residual activity (DAPK1 (human); compound 0.1 µM): 102% | residual activity (DAPK1 (human); compound 1.0 µM): 93% | residual activity (DAPK1 (human); compound 10.0 µM): 40% | residual activity (EEF2K (human); compound 0.1 µM): 105% | residual activity (EEF2K (human); compound 1.0 µM): 111% | residual activity (EEF2K (human); compound 10.0 µM): 87% | residual activity (IKBKB (human); compound 0.1 µM): 85% | residual activity (IKBKB (human); compound 1.0 µM): 50% | residual activity (IKBKB (human); compound 10.0 µM): 23% | residual activity (SRC (human); compound 0.1 µM): 106% | residual activity (SRC (human); compound 1.0 µM): 90% | residual activity (SRC (human); compound 10.0 µM): 66% | residual activity (MAP3K9 (human); compound 1.0 µM): 69% | residual activity (MAP3K9 (human); compound 10.0 µM): 103% | residual activity (CHEK2 (human); compound 0.1 µM): 102% | residual activity (CHEK2 (human); compound 1.0 µM): 106% | residual activity (CHEK2 (human); compound 10.0 µM): 88% | residual activity (ERBB4 (human); compound 0.1 µM): 83% | residual activity (ERBB4 (human); compound 10.0 µM): 73% | residual activity (EPHB3 (human); compound 0.1 µM): 105% | residual activity (EPHB3 (human); compound 1.0 µM): 124% | residual activity (EPHB3 (human); compound 10.0 µM): 94% | residual activity (RPS6KA1 KD1 KD2 (human); compound 0.1 µM): 88% | residual activity (RPS6KA1 KD1 KD2 (human); compound 1.0 µM): 53% | residual activity (RPS6KA1 KD1 KD2 (human); compound 10.0 µM): 2% | residual activity (MYLK (human); compound 0.1 µM): 85% | residual activity (MYLK (human); compound 1.0 µM): 40% | residual activity (MYLK (human); compound 10.0 µM): 10% | residual activity (NTRK1 (human); compound 0.1 µM): 72% | residual activity (NTRK1 (human); compound 10.0 µM): 71% | residual activity (MKNK2 (human); compound 0.1 µM): 76% | residual activity (MKNK2 (human); compound 1.0 µM): 31% | residual activity (MKNK2 (human); compound 10.0 µM): 6% | residual activity (PHKG1 (human); compound 0.1 µM): 82% | residual activity (PHKG1 (human); compound 1.0 µM): 29% | residual activity (PHKG1 (human); compound 10.0 µM): 5%
